Source: PubChem BioAssay AID2060892 (Molecular Pharmacology Branch, DTP, NCI, 2025)

Tested on: HOP-62 complex spheroids with HUVEC/MSC, viability
Assay: Anticancer human tumor HOP-62 cell line growth inhibition [RAS];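 also: spheroids exposed to agents for seven days before readout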;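 as to viability, T/C: 100% = DMSO vehicle control viability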
Conditions: for IC50: curve of first compound; for viability, T/C: stronger effect = lower value
Description: RAS pathway inhibitors in Combinations in Complex Spheroids
A high-throughput screen of multi-cell type tumor spheroids was designed to identify active combinations of RAS pathway inhibitors and targeted small molecules. Complex spheroids include a stromal component modeled by human endothelial cells (HUVEC) and fibroblasts modeled by human mesenchymal stem cells (MSCs). The concentration ranges selected for each drug and investigational agent were based upon clinically achievable concentrations if the clinical Cmax of the agent was known.
Compounds. The drugs and investigational agents: abemaciclib (NSC768073), cobimetinib (NSC768068), divarasib (GDC6063, NSC841802), docetaxel (NSC628503), GDC-1971 (RLY-1971, NSC841576), gemcitabine (NSC613327), inavolisib (NSC800729), ipatasertib (NSC767898), KB-0742 (NSC834161), MRTX-1133 (NSC836407), osimertinib (NSC779217), RMC-4630 (NSC839698), RMC-6236 (NSC851965), RMC-6291 (NSC852671), Ro-3306 (NSC812927), sapanisertib (NSC764658), SN-38 (NSC673596), staurosporine (NSC755774), SY5609 (NSC837396), and tovorafenib (DAY101, NSC766906), were obtained from the National Cancer Institute (NCI) Developmental Therapeutics Program Chemical Repository. The FDA-approved anticancer drug set is available from the NCI Developmental Therapeutics Program. […] The stock solutions were prepared in dimethyl sulfoxide (DMSO, Sigma-Aldrich, St. Louis, MO, cat. D2650) at 800-fold the tested concentration and stored at -70 degrees C prior to their use. All drugs and investigational agents were tested over a range starting from a high concentration at or near the clinical Cmax and decreasing in half-log increments. If the clinical Cmax for an agent had not been determined, the highest concentration tested was 10 microM.
Cell Culture. All cells were maintained in an incubator at 37 degrees C and 5% CO2 with 95% humidity. The PDC lines were cultured according to standard operating procedures established by the NCI PDMR. All PDCs were thawed and cultured in Matrigel-coated flasks prepared with a working solution of 1X Ham's F-12 nutrient mix, without supplementation (Invitrogen, Waltham, MA, cat. 11765054), 100 U/mL penicillin-streptomycin (Invitrogen, cat. 15140122), and 2.5% Matrigel (Corning Inc., Corning, NY, cat. 354248) for the first three passages. The 362531-283-R-J2-PDC and 782815-120-R-J1-PDC lines were cultured in 6C/Colon 1B media, which includes advanced DMEM/F-12 (Thermo Fisher Scientific, cat. 12634028), 10 mM HEPES (Thermo Fisher Scientific, cat. 15630080), 1X GlutaMAX supplement (Thermo Fisher Scientific, cat. 35050061), 0.1 mg/mL primocin (InvivoGen, San Diego, CA, cat. ant-pm-2), 10% defined fetal bovine serum, heat inactivated (HyClone Laboratories Inc., Logan, UT, cat. SH30070.03HI), 50% L-WRN conditioned media (ATCC, cat. CRL-3276), 1.25 mM N-Acetyl-L-cysteine (Sigma-Aldrich, cat. A9165), 10 mM nicotinamide (Sigma-Aldrich, cat. N0636), 1X B-27 supplement (Thermo Fisher Scientific, cat. 17504044), 1X N-2 supplement (Thermo Fisher Scientific, cat. 17502048), 50 ng/mL human EGF (Thermo Fisher Scientific, cat. PHG0311), and 10 microM Y-27632 dihydrochloride (Tocris Bioscience, cat. 1254). The K12877-001-R-J1-PDC line was cultured in 6I media, which includes all 6C/Colon 1B media plus 10 ng/mL human FGF-10 (PeproTech, cat. 100-26), 1 ng/mL human FGF-2 (PeproTech, cat. 100-18B), 1 µM prostaglandin E2 (Tocris Bioscience, cat. 2296), […] hydrocortisone (Sigma-Aldrich, cat. H4001), and […] bovine insulin (Sigma-Aldrich, cat. I6634). The K86415-001-R-J1-PDC line was cultured in 6D media, which includes all 6C/Colon 1B media components minus the L-WRN conditioned media. The 485176-168-R4-J1-PDC was cultured in PANC media, which includes all 6C/Colon 1B media plus 100 ng/mL human FGF-10 (PeproTech, cat. 100-26), 500 nM SB-431542 (Selleckchem, cat. S1067), and 10 nM gastrin (Tocris Bioscience, cat. 3006). […]

CCN1CCN(Cc2ccc(Nc3ncc(F)c(-c4cc(F)c5nc(C)n(C(C)C)c5c4)n3)nc2)CC1 + CCn1c(-c2cc(N3CCN(C)CC3)cnc2C(C)OC)c2c3cc(ccc31)-c1csc(n1)CC(NC(=O)C1CC1C)C(=O)N1CCCC(N1)C(=O)OCC(C)(C)C2
IC50 (second compound 0.000949 µM): > 1000 nM
IC50 (second compound 0.003 µM): > 1000 nM
IC50 (second compound 0.00949 µM): > 1000 nM
IC50 (second compound 0.03 µM): 70.4 nM
IC50 (second compound 0.0949 µM): < 3.16 nM
IC50 (second compound 0.3 µM): < 3.16 nM
viability, T/C (second compound 0.000949 µM, first compound 0.00316 µM): 121%
viability, T/C (second compound 0.000949 µM, first compound 0.01 µM): 117%
viability, T/C (second compound 0.000949 µM, first compound 0.0316 µM): 85.5%
viability, T/C (second compound 0.000949 µM, first compound 0.1 µM): 109%
viability, T/C (second compound 0.000949 µM, first compound 0.316 µM): 114%
viability, T/C (second compound 0.000949 µM, first compound 1 µM): 87.8%
viability, T/C (second compound 0.003 µM, first compound 0.00316 µM): 97.9%
viability, T/C (second compound 0.003 µM, first compound 0.01 µM): 81.7%
viability, T/C (second compound 0.003 µM, first compound 0.0316 µM): 78.2%
viability, T/C (second compound 0.003 µM, first compound 0.1 µM): 90.4%
viability, T/C (second compound 0.003 µM, first compound 0.316 µM): 104%
viability, T/C (second compound 0.003 µM, first compound 1 µM): 62.6%
viability, T/C (second compound 0.00949 µM, first compound 0.00316 µM): 70.7%
viability, T/C (second compound 0.00949 µM, first compound 0.01 µM): 57.9%
viability, T/C (second compound 0.00949 µM, first compound 0.0316 µM): 68.2%
viability, T/C (second compound 0.00949 µM, first compound 0.1 µM): 74.3%
viability, T/C (second compound 0.00949 µM, first compound 0.316 µM): 57.3%
viability, T/C (second compound 0.00949 µM, first compound 1 µM): 50.8%
viability, T/C (second compound 0.03 µM, first compound 0.00316 µM): 52.8%
viability, T/C (second compound 0.03 µM, first compound 0.01 µM): 52.4%
viability, T/C (second compound 0.03 µM, first compound 0.0316 µM): 51.9%
viability, T/C (second compound 0.03 µM, first compound 0.1 µM): 49%
viability, T/C (second compound 0.03 µM, first compound 0.316 µM): 32.6%
viability, T/C (second compound 0.03 µM, first compound 1 µM): 50.4%
viability, T/C (second compound 0.0949 µM, first compound 0.00316 µM): 38.4%
viability, T/C (second compound 0.0949 µM, first compound 0.01 µM): 42.8%
viability, T/C (second compound 0.0949 µM, first compound 0.0316 µM): 39.2%
viability, T/C (second compound 0.0949 µM, first compound 0.1 µM): 32.4%
viability, T/C (second compound 0.0949 µM, first compound 0.316 µM): 32.6%
viability, T/C (second compound 0.0949 µM, first compound 1 µM): 47%
viability, T/C (second compound 0.3 µM, first compound 0.00316 µM): 36.6%
viability, T/C (second compound 0.3 µM, first compound 0.01 µM): 37.1%
viability, T/C (second compound 0.3 µM, first compound 0.0316 µM): 35.2%
viability, T/C (second compound 0.3 µM, first compound 0.1 µM): 33.4%
viability, T/C (second compound 0.3 µM, first compound 0.316 µM): 40.7%
viability, T/C (second compound 0.3 µM, first compound 1 µM): 45.3%

CC(C)NCC(C(=O)N1CCN(c2ncnc3c2C(C)CC3O)CC1)c1ccc(Cl)cc1 (centres undefined) + C=CC(=O)N1CCN(c2nc(OCC3CCCN3C)nc3c(F)c(-c4nc(N)cc(C)c4C(F)(F)F)c(Cl)cc23)C(C)C1
IC50 (second compound 0.00316 µM): 1050 nM
IC50 (second compound 0.01 µM): 710 nM
IC50 (second compound 0.0316 µM): 464 nM
IC50 (second compound 0.1 µM): 450 nM
IC50 (second compound 0.316 µM): 554 nM
IC50 (second compound 1 µM): 300 nM
viability, T/C (second compound 0.00316 µM, first compound 0.0316 µM): 84.3%
viability, T/C (second compound 0.00316 µM, first compound 0.1 µM): 78.1%
viability, T/C (second compound 0.00316 µM, first compound 0.316 µM): 63.4%
viability, T/C (second compound 0.00316 µM, first compound 1 µM): 53.4%
viability, T/C (second compound 0.00316 µM, first compound 3.16 µM): 31%
viability, T/C (second compound 0.00316 µM, first compound 10 µM): 12.8%
viability, T/C (second compound 0.01 µM, first compound 0.0316 µM): 71.7%
viability, T/C (second compound 0.01 µM, first compound 0.1 µM): 67.5%
viability, T/C (second compound 0.01 µM, first compound 0.316 µM): 60.2%
viability, T/C (second compound 0.01 µM, first compound 1 µM): 46.3%
viability, T/C (second compound 0.01 µM, first compound 3.16 µM): 27.1%
viability, T/C (second compound 0.01 µM, first compound 10 µM): 15.3%
viability, T/C (second compound 0.0316 µM, first compound 0.0316 µM): 74.9%
viability, T/C (second compound 0.0316 µM, first compound 0.1 µM): 60.5%
viability, T/C (second compound 0.0316 µM, first compound 0.316 µM): 53.7%
viability, T/C (second compound 0.0316 µM, first compound 1 µM): 39.2%
viability, T/C (second compound 0.0316 µM, first compound 3.16 µM): 39%
viability, T/C (second compound 0.0316 µM, first compound 10 µM): 12%
viability, T/C (second compound 0.1 µM, first compound 0.0316 µM): 70%
viability, T/C (second compound 0.1 µM, first compound 0.1 µM): 57.8%
viability, T/C (second compound 0.1 µM, first compound 0.316 µM): 60.7%
viability, T/C (second compound 0.1 µM, first compound 1 µM): 34.6%
viability, T/C (second compound 0.1 µM, first compound 3.16 µM): 25.4%
viability, T/C (second compound 0.1 µM, first compound 10 µM): 13.6%
viability, T/C (second compound 0.316 µM, first compound 0.0316 µM): 61.7%
viability, T/C (second compound 0.316 µM, first compound 0.1 µM): 81.3%
viability, T/C (second compound 0.316 µM, first compound 0.316 µM): 55.5%
viability, T/C (second compound 0.316 µM, first compound 1 µM): 39.4%
viability, T/C (second compound 0.316 µM, first compound 3.16 µM): 23.5%
viability, T/C (second compound 0.316 µM, first compound 10 µM): 12.6%
viability, T/C (second compound 1 µM, first compound 0.0316 µM): 69.8%
viability, T/C (second compound 1 µM, first compound 0.1 µM): 57.1%
viability, T/C (second compound 1 µM, first compound 0.316 µM): 50.2%
viability, T/C (second compound 1 µM, first compound 1 µM): 39.4%
viability, T/C (second compound 1 µM, first compound 3.16 µM): 23.9%
viability, T/C (second compound 1 µM, first compound 10 µM): 11.4%
